Test: Restoration of CFTR chloride channel activity in human HBE cells expressing wild type CFTR assessed as increase in channel function
Format: functional

In the case of `C[C@H](N)[C@H]1O[C@@H](O[C@@H]2[C@@H](O)[C@H](N)C[C@H](N)[C@H]2O[C@H]2O[C@H]([C@@H](C)O)[C@@H](O)[C@H](O)[C@H]2N)[C@H](O)[C@@H]1O`, the Activity was 7%.
